What was measured:
[1] = molecular target: Receptor-type tyrosine-protein kinase FLT3 (Homo sapiens) (UniProt P36888); details: Compound concentration 1000.0 nM
[2] = molecular target: Mitogen-activated protein kinase 6 (Homo sapiens) (UniProt Q16659); details: Compound concentration 1000.0 nM
[3] = molecular target: Tyrosine-protein kinase Fes/Fps (Homo sapiens) (UniProt P07332); details: Compound concentration 1000.0 nM
[4] = molecular target: Serine/threonine-protein kinase Sgk2 (Homo sapiens) (UniProt Q9HBY8); details: Compound concentration 1000.0 nM
[5] = molecular target: Serine/threonine-protein kinase TNNI3K (Homo sapiens) (UniProt Q59H18); details: Compound concentration 1000.0 nM
[6] = molecular target: Maternal embryonic leucine zipper kinase (Homo sapiens) (UniProt Q14680); details: Compound concentration 1000.0 nM
[7] = molecular target: Cyclin-dependent kinase 2 (Homo sapiens) (UniProt P24941); details: Compound concentration 1000.0 nM
[8] = test system: Mast/stem cell growth factor receptor Kit (Homo sapiens), P10721 [A829P]; details: Compound concentration 1000.0 nM
[9] = test system: Epidermal growth factor receptor (Homo sapiens), P00533 [L858R,T790M]; details: Compound concentration 1000.0 nM
[10] = test system: Epidermal growth factor receptor (Homo sapiens), P00533 [UNDEFINED MUTATION]; details: Compound concentration 1000.0 nM
[11] = molecular target: Alpha-2A adrenergic receptor (Homo sapiens) (UniProt P08913); details: Compound concentration 10.0 uM
Alpha-2A adrenergic receptor (Homo sapiens), sequence (P08913 whole entry): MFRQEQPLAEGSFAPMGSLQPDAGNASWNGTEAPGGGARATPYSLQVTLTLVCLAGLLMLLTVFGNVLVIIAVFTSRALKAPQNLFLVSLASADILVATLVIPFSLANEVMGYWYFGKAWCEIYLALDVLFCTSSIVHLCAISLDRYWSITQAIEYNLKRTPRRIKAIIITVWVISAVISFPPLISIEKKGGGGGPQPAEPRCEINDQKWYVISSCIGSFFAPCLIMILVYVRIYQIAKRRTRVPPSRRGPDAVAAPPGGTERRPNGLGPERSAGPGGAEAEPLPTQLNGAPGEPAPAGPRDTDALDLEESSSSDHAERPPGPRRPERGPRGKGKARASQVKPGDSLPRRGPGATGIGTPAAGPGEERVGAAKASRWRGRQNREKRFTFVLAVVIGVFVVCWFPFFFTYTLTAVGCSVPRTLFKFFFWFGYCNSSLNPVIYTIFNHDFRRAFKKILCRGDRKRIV

[12] = molecular target: Dual specificity mitogen-activated protein kinase kinase 7 (Homo sapiens) (UniProt O14733); details: Compound concentration 1000.0 nM
[13] = molecular target: Calcium/calmodulin-dependent protein kinase type 1B (Homo sapiens) (UniProt Q6P2M8); details: Compound concentration 1000.0 nM
[14] = test system: Mast/stem cell growth factor receptor Kit (Homo sapiens), P10721 [D816H]; details: Compound concentration 1000.0 nM
[15] = molecular target: Misshapen-like kinase 1 (Homo sapiens) (UniProt Q8N4C8); details: Compound concentration 1000.0 nM
Misshapen-like kinase 1 (Homo sapiens), sequence (Q8N4C8 whole entry, looked up): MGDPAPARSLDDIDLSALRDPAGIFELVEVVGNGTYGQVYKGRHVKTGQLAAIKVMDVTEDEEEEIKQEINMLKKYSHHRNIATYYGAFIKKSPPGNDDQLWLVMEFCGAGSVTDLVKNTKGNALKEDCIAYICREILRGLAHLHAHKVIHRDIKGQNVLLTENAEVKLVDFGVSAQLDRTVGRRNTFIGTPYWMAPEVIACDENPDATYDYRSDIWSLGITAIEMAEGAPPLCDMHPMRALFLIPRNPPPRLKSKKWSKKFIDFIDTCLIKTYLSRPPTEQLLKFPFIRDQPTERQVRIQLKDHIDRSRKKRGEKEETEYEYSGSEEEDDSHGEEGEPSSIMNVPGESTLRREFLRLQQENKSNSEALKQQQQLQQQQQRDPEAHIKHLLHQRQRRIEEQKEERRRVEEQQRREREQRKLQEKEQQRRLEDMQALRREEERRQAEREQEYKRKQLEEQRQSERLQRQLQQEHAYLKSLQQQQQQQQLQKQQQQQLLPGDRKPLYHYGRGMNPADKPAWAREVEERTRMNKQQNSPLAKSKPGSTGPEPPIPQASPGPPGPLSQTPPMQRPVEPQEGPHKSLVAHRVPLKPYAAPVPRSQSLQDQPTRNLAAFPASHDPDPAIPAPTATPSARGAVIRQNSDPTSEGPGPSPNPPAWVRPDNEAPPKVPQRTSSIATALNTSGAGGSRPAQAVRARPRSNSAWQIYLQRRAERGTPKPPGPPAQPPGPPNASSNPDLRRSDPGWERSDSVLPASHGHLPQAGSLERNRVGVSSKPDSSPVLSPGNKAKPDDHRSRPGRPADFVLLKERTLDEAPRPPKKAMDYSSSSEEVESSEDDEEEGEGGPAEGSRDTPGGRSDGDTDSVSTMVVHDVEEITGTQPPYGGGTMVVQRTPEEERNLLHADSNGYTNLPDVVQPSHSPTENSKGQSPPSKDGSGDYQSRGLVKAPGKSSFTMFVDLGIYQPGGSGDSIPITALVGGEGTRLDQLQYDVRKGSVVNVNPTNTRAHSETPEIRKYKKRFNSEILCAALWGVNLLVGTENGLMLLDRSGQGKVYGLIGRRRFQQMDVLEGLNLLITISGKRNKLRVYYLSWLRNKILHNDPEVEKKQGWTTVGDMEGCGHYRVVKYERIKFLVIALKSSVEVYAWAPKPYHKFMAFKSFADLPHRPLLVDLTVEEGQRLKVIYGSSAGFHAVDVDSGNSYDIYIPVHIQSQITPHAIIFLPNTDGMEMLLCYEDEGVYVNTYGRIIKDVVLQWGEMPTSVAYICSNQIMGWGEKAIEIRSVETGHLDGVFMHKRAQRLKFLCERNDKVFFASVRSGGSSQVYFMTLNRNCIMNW

[16] = molecular target: Activin receptor type-2A (Homo sapiens) (UniProt P27037); details: Compound concentration 1000.0 nM
[17] = molecular target: Dual specificity protein kinase CLK2 (Homo sapiens) (UniProt P49760); details: Compound concentration 1000.0 nM
[18] = molecular target: Serine/threonine-protein kinase N1 (Homo sapiens) (UniProt Q16512); details: Compound concentration 1000.0 nM
[19] = molecular target: Serine/threonine-protein kinase 38 (Homo sapiens) (UniProt Q15208); details: Compound concentration 1000.0 nM
Serine/threonine-protein kinase 38 (Homo sapiens), sequence (Q15208 2-465 limits assumed): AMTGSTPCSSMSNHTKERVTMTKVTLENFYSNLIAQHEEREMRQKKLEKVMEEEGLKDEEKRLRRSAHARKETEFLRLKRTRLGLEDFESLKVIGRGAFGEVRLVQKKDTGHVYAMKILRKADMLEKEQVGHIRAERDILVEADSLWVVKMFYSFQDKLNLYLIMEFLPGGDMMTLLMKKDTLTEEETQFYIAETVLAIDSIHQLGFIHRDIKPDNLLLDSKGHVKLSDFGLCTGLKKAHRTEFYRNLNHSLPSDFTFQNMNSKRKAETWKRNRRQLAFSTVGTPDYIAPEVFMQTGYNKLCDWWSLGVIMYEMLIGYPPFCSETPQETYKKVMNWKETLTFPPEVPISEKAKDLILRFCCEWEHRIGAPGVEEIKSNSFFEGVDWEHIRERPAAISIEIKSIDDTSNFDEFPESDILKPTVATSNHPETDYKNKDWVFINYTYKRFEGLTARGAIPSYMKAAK

[20] = molecular target: Tyrosine-protein kinase receptor UFO (Homo sapiens) (UniProt P30530); details: Compound concentration 1000.0 nM
Tyrosine-protein kinase receptor UFO (Homo sapiens), sequence (P30530 whole entry): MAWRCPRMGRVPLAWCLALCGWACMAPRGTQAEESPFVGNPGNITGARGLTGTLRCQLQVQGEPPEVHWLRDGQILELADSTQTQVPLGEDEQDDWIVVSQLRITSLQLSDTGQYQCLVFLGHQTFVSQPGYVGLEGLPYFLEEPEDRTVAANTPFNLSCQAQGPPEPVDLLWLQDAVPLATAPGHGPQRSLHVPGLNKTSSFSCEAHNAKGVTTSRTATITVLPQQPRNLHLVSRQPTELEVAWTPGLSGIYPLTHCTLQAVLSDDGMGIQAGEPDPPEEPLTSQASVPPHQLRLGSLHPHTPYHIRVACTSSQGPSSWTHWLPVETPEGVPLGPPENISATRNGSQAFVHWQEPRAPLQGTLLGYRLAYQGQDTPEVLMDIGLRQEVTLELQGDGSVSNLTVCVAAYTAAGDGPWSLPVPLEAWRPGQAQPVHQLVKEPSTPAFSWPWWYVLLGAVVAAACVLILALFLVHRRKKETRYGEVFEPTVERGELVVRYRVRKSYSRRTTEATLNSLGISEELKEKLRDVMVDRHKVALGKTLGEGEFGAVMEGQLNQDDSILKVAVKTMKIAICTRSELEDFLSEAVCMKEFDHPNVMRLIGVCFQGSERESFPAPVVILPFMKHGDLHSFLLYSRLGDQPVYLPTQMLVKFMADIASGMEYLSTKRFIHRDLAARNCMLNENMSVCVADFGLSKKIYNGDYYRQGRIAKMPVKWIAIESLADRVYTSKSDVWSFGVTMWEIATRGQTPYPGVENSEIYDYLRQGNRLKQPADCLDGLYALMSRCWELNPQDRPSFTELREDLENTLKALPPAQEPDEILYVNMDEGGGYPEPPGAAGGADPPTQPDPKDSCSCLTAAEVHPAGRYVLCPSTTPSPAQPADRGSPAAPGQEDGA

[21] = molecular target: Sodium-dependent dopamine transporter (Homo sapiens) (UniProt Q01959); details: Compound concentration 10.0 uM
Sodium-dependent dopamine transporter (Homo sapiens), sequence (Q01959 whole entry, canonical isoform): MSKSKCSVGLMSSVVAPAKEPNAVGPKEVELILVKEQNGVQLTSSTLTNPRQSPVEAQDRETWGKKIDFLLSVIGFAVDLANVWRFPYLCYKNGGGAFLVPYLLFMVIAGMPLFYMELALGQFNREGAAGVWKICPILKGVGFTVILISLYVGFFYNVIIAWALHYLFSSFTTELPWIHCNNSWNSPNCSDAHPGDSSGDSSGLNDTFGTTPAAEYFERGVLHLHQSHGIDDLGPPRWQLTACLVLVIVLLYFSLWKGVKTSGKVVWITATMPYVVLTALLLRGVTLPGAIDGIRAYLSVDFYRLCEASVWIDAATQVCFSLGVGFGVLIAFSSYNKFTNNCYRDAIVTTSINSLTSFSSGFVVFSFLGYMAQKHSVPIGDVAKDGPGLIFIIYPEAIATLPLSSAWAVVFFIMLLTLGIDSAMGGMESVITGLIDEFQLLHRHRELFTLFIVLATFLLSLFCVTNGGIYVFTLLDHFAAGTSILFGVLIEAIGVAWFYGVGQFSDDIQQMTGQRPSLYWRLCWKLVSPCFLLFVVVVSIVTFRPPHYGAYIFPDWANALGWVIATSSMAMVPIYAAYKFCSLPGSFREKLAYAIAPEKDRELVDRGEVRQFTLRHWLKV

[22] = test system: Phosphatidylinositol 4,5-bisphosphate 3-kinase catalytic subunit alpha isoform (Homo sapiens), P42336 [H1047L]; details: Compound concentration 1000.0 nM
[23] = molecular target: Serine/threonine-protein kinase WNK3 (Homo sapiens) (UniProt Q9BYP7); details: Compound concentration 1000.0 nM
[24] = molecular target: Mitogen-activated protein kinase kinase kinase kinase 3 (Homo sapiens) (UniProt Q8IVH8); details: Compound concentration 1000.0 nM
[25] = molecular target: cAMP-dependent protein kinase catalytic subunit beta (Homo sapiens) (UniProt P22694); details: Compound concentration 1000.0 nM
[26] = molecular target: Dual specificity protein kinase CLK1 (Homo sapiens) (UniProt P49759); details: Compound concentration 1000.0 nM
Dual specificity protein kinase CLK1 (Homo sapiens), sequence (P49759 whole entry, looked up): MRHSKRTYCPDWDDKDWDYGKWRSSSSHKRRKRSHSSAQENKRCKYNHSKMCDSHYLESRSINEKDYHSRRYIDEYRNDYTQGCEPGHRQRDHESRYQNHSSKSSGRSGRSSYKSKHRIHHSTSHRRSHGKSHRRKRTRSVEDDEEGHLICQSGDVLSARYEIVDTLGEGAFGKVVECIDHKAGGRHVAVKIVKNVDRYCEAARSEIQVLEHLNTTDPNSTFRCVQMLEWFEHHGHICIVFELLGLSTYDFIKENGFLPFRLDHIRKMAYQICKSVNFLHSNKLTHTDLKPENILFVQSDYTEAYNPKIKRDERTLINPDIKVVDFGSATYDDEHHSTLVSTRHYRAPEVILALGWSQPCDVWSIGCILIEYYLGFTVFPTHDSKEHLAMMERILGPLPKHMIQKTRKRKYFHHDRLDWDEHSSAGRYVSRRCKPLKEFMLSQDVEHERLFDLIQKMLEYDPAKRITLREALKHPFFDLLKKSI

[27] = molecular target: MAP kinase-interacting serine/threonine-protein kinase 1 (Homo sapiens) (UniProt Q9BUB5); details: Compound concentration 1000.0 nM
[28] = molecular target: Mitogen-activated protein kinase kinase kinase 20 (Homo sapiens) (UniProt Q9NYL2); details: Compound concentration 1000.0 nM
[29] = molecular target: Serine/threonine-protein kinase WNK4 (Homo sapiens) (UniProt Q96J92); details: Compound concentration 1000.0 nM
[30] = molecular target: Mitogen-activated protein kinase kinase kinase 7 (Homo sapiens) (UniProt O43318); details: Compound concentration 1000.0 nM
[31] = test system: Proto-oncogene tyrosine-protein kinase receptor Ret (Homo sapiens), P07949 [M918T]; details: Compound concentration 1000.0 nM
[32] = molecular target: Phosphatidylinositol 4-phosphate 5-kinase type-1 alpha (Homo sapiens) (UniProt Q99755); details: Compound concentration 1000.0 nM
[33] = test system: Epidermal growth factor receptor (Homo sapiens), P00533 [L858R]; details: Compound concentration 1000.0 nM
[34] = molecular target: Inhibitor of nuclear factor kappa-B kinase subunit beta (Homo sapiens) (UniProt O14920); details: Compound concentration 1000.0 nM
[35] = molecular target: Mitogen-activated protein kinase 15 (Homo sapiens) (UniProt Q8TD08); details: Compound concentration 1000.0 nM
[36] = molecular target: MAP/microtubule affinity-regulating kinase 4 (Homo sapiens) (UniProt Q96L34); details: Compound concentration 1000.0 nM
[37] = test system: Phosphatidylinositol 4,5-bisphosphate 3-kinase catalytic subunit alpha isoform (Homo sapiens), P42336 [H1047Y]; details: Compound concentration 1000.0 nM
[38] = molecular target: Kappa-type opioid receptor (Homo sapiens) (UniProt P41145); details: Compound concentration 10.0 uM
[39] = molecular target: Serine/threonine-protein kinase SIK1 (Homo sapiens) (UniProt P57059); details: Compound concentration 1000.0 nM
[40] = molecular target: Tyrosine-protein kinase receptor TYRO3 (Homo sapiens) (UniProt Q06418); details: Compound concentration 1000.0 nM
[41] = test system: Epidermal growth factor receptor (Homo sapiens), P00533 [G719C]; details: Compound concentration 1000.0 nM
[42] = molecular target: Rho-associated protein kinase 1 (Homo sapiens) (UniProt Q13464); details: Compound concentration 1000.0 nM
[43] = molecular target: Alpha-2B adrenergic receptor (Homo sapiens) (UniProt P18089); details: Compound concentration 10.0 uM
[44] = molecular target: Serine/threonine-protein kinase SBK1 (Homo sapiens) (UniProt Q52WX2); details: Compound concentration 1000.0 nM
[45] = molecular target: Fibroblast growth factor receptor 4 (Homo sapiens) (UniProt P22455); details: Compound concentration 1000.0 nM

Mitogen-activated protein kinase 6 (Homo sapiens), sequence (Q16659 whole entry): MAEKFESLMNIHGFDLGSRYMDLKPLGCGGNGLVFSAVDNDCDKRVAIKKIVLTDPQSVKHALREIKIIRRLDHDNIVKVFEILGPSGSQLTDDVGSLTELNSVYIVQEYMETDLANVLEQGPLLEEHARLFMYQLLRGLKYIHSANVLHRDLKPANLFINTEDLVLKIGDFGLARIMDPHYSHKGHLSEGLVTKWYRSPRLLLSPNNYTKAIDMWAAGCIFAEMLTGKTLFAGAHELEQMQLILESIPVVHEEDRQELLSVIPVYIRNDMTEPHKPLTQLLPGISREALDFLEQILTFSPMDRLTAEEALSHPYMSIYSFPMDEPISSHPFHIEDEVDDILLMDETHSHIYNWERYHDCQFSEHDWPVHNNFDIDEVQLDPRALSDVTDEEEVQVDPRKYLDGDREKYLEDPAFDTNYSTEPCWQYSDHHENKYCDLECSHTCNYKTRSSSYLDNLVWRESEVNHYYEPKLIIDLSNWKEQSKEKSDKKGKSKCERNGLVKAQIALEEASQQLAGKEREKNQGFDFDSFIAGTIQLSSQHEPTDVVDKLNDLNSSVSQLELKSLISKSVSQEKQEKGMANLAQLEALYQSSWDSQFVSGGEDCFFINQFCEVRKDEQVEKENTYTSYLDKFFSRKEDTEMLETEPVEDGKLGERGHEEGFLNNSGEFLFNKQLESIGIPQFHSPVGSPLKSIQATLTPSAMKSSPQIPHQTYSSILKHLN

N#Cc1ccc(Nc2ccc3[nH]c(=O)[nH]c3c2)c(Cl)c1
inactive: residual activity [1] 100% | residual activity [2] 100% | residual activity [3] 100% | residual activity [4] 65% | residual activity [5] 65% | residual activity [6] 95% | residual activity [7] 93% | residual activity [8] 100% | residual activity [9] 79% | residual activity [10] 100% | inhibition [11] 2.09% | residual activity [12] 100% | residual activity [13] 78% | residual activity [14] 99% | residual activity [15] 91% | residual activity [16] 70% | residual activity [17] 100% | residual activity [18] 100% | residual activity [19] 95% | residual activity [20] 100% | inhibition [21] 14% | residual activity [22] 78% | residual activity [23] 100% | residual activity [24] 88% | residual activity [25] 96% | residual activity [26] 100% | residual activity [27] 100% | residual activity [28] 100% | residual activity [29] 100% | residual activity [30] 90% | residual activity [31] 100% | residual activity [32] 100% | residual activity [33] 100% | residual activity [34] 89% | residual activity [35] 100% | residual activity [36] 99% | residual activity [37] 100% | inhibition [38] 8.98% | residual activity [39] 100% | residual activity [40] 62% | residual activity [41] 100% | residual activity [42] 100% | inhibition [43] 13.1% | residual activity [44] 93% | residual activity [45] 100%

O=C1CCc2cc(Nc3cc(OC4CCOCC4)c([N+](=O)[O-])cc3Cl)ccc2N1
inactive: residual activity [1] 90% | residual activity [2] 100% | residual activity [3] 100% | residual activity [4] 80% | residual activity [5] 60% | residual activity [6] 77% | residual activity [7] 88% | residual activity [8] 100% | residual activity [9] 76% | residual activity [10] 100% | inhibition [11] 4.66% | residual activity [12] 100% | residual activity [13] 68% | residual activity [14] 100% | residual activity [15] 83% | residual activity [16] 81% | residual activity [17] 99% | residual activity [18] 100% | residual activity [19] 88% | residual activity [20] 96% | inhibition [21] 13.6% | residual activity [22] 78% | residual activity [23] 87% | residual activity [24] 91% | residual activity [25] 100% | residual activity [26] 84% | residual activity [27] 100% | residual activity [28] 81% | residual activity [29] 100% | residual activity [30] 95% | residual activity [31] 94% | residual activity [32] 100% | residual activity [33] 100% | residual activity [34] 100% | residual activity [35] 96% | residual activity [36] 100% | residual activity [37] 100% | inhibition [38] 12.4% | residual activity [39] 96% | residual activity [40] 100% | residual activity [41] 100% | residual activity [42] 80% | inhibition [43] -0.04% | residual activity [44] 97% | residual activity [45] 81%

From ChEMBL document CHEMBL4507304, “Data for DCP probe TP-021” (2021)
